System: different signaling molecules
Assay: Western blot analysis of signaling
Format: cell-based
Details: n=1
Procedure: In light of the previously reported role of uPAR in signaling, the effect of IPR-993, IPR-737, IPR-81 and IPR-69 on signaling was studied by Western blot analysis (FIG. 23). A concentration-dependent study was carried out for IPR-737.

Question: Which “effect on signaling molecules” value does the source give for `Cc1cc(C)cc(NC(=O)c2cnn(-c3ccc(C(C)C)cc3)c2C2CCNCC2)c1` [IPR-69, N-(3,5-dimethylphenyl)-1-(4-isopropylphenyl)-5-(piperidin-4-yl)-1H-pyrazole-4-carboxamide] here?
Answer: Its value is “did not seem to be much of an effect”.
